# Experimental data as given in patent US20210071180A1, “MICRORNA 584-5P COMPOSITIONS AND METHODS FOR TREATING CANCER” (BOARD OF REGENTS, THE UNIVERSY OF TEXAS SYSTEM, priority 2018, published 2021).
# What was measured:
# [1] = tested on: 3′-UTR of HDAC1; test: Dual luciferase 3′-UTR reporter assay (HDAC1); type: cell-based; conditions: miR-584-5p mimic in comparison with scrambled
# Experimental: Dual luciferase assay. Wild-type or mutant 3′-UTR segments of the eIF4E3 and HDAC1 gene were cloned downstream of the luciferase gene in pGL3-promoter vector at the SacI and SpeI restriction sites. HEK293 cells were cotransfected with Renilla luciferase vector (pRLnull 380) and firefly luciferase vector containing pGL3-wt-eIF4E3; pGL3-mut-eIF4E3; or pGL3-wt-HDAC1, pGL3-mut-HDAC1, or pGL3 overnight and incubated in fresh complete medium for an additional 48 hours after transfection. Cells were then transfected with miRNA mimic (Invitrogen) for 24 hours. Next, cells were harvested with 1× passive lysis buffer (Promega) and luciferase activity was read using GLOMAX 20/20 luminometer (Promega).
# Data are z-transformed. The cutoff criteria for each gene are fold change >2, sample intensity >10, and p-value <0.05. […] To validate the gene expression analysis and target prediction results, it was determined whether miR-584-5p reduced HDAC1/eIF4E3 expression by binding to their 3′-untranslated regions (3′-UTRs). […] Also shown are the portion of the miR-584-5p sequence (SEQ ID NO: 15; UAUGGUU) that binds to the wild-type 3′UTR and seed sequence mutant (SEQ ID NO: 16; […], top panel; and SEQ ID NO: 17; […]; bottom panel). Also shown is miR-584-5p seed sequence mutated sequences. […] The p-values were calculated using standard Student t-tests. […] The p-values were calculated using standard Student t-tests.
# [2] = tested on: DAOY cells stably expressing green fluorescent protein (GFP)-luciferase; test: Orthotopic intracranial tumor xenograft, bioluminescence imaging and survival
# Experimental: For in vivo studies, orthotopic intracranial transplantation of the scrambled and miR-584-5p-transfected DAOY cells stably expressing green fluorescent protein (GFP)-luciferase was performed. […] The p-values were determined by the sum-of-squares F test. Error bars represent mean±SEM. […] The p-value was determined using the log-rank (Mantel-Cox) test. Error bars represent SE. ****, p<0.0001; ***, p<0.001.
# Animals and intracranial xenografts. Athymic nude mice (nu/nu) were obtained from Harlan, USA. Three- to 5-week-old athymic nude mice (nu/nu) were anesthetized using isoflurane by inhalation. Using a Hamilton syringe, 1 million cells were stereotactically implanted into the right corpus striatum at a depth of 3.5 mm at a point 2.5 mm lateral to the midline and 1.5 mm anterior to the bregma. After the surgery, the animal recovered on a heating pad in a normal mouse cage to maintain its body temperature at 37°-37.2° C. An ocular lubricating ointment (AKORN) was administered until spontaneous blinking resumed. Starting from week 2, control group animals received dimethyl sulfoxide, whereas VCR group animals received 1 mg of VCR (Sigma-Aldrich) per kg of body weight intraperitoneally once per week for 6 weeks. The Xenogen Small-Animal Imaging System was used for subcellular imaging in live mice once per week. Animals were killed, and brains were fixed and analyzed.
# [3] = tested on: activated CHK1, ATR, BRCA1; test: Western blot of checkpoint proteins; type: cell-based; conditions: miR-584-5p mimic-transfected MB cells
# Experimental: FIG. 13C-D show representative immunofluorescence images showing 53BP1 foci in D556Med cells transfected with miR-NC or miR-584-5p mimic (C) or scramble-siRNA or eIF4E3/HDAC1-siRNAs (D) and treated with or without 10 Gy of IR.
# Immunofluorescence and Western blot analysis Immunofluorescence analyses was carried out on cells fixed in 4% paraformaldehyde (Imam, J. S. et al. PLoS One 7, e52397, (2012)). Western blot analysis was performed on cell extracts from miR-584-5p mimic- or target gene siRNA-transfected MB cell lines in accordance with previously reported studies (Rajamanickam, S. et al. Clin Cancer Res 22, 3524-3536, (2016); and Imam, J. S. et al. PLoS One 7, e52397, (2012). Antibodies against horseradish peroxidase-conjugated β-actin (1:50,000; #A5316), β-tubulin (#T8328), and glyceraldehyde-3-phosphate dehydrogenase (GAPDH) (1:25,000; #G9295) were purchased from Sigma-Aldrich. Antibody against eIF4E3 (1:1000; #17282-1-AP) was purchased from Proteintech. Antibodies against HDAC1 (1:1000; #5356), pCHK1 (1:1000; #2348), and CHK1 (1:1000; #2360) were purchased from Cell Signaling Technology (Danvers, Mass., USA). Antibodies against MYC (1:1000; #Sc-40), BRCA1 (1:1000; #6954), and ATR (1:1000; #sc-515173) were purchased from Santa Cruz. Antibody against 53BP1 (1:300; #A300-272AT) was purchased from Bethyl Laboratories. […]
# [4] = tested on: eIF4E3; test: qPCR and Western blot of eIF4E3 in MB cells; type: cell-based; conditions: transcript and protein levels, all cell lines tested
# [5] = tested on: eIF4E1; test: Western blot analysis of eIF4E1; type: cell-based; conditions: MB cells
# Experimental: Next, it was determined whether miR-584-5p and its target genes, eIF4E3 and HDAC1, show reciprocal expression pattern in MB. […] In FIG. 16A, data represent Log 2 ratio tumor/cerebellum control. Data mined from GSE42657. In FIG. 16B, data represent Log 2 ratio tumor/cerebellum control. Data mined from GSE28245. To further confirm those results, miR-584-5p expression in MB patient-derived xenografts was examined. […] The p-values were calculated using one-way ANOVA followed by Sidak's multiple-comparisons test. Error bars represent mean±SEM. To further confirm the specificity of miR-584-5p-eIF4E3 signaling axis in MB, the expression of eIF4E1, which acts as an oncogene in several cancers (Bhat, M. et al. Nat Rev Drug Discov 14, 261-278, (2015)), was tested in miR-584-5p treated cells.
substance,measurement,setting,value
miR-584-5p: microRNA mimic; nucleotide sequence UUAUGGUUUGCCUGGGACUGAG (SEQ ID NO: 1); purchased from Thermofisher (chemistry not given here),"luciferase activity, HDAC1 3′-UTR with mutated miR-584-5p binding sites",[1],no change in luciferase activity
same,"luciferase activity, wild-type HDAC1 3′-UTR construct",[1],significantly reduced
same,MB tumor growth,"[2]; transfected DAOY cells, in comparison with scrambled-transfectant tumor",dramatically reduced MB growth
same,survival of mice,"[2]; vs scrambled-transfectant group, Kaplan-Meier",lived significantly longer
same,"levels of activated CHK1 and ATR, as well as BRCA1",[3],significantly lower levels
same,expression of eIF4E3,[4],significantly reduced expression
same,eIF4E1 levels,[5],did not show any change
